Measurements from patent US20180327367A1, “MACROCYCLIC BROAD SPECTRUM ANTIBIOTICS” (priority 2015, published 2018).
In brackets after ≈: the same amount, converted by molar mass. Like-named read-outs stand apart in the source and are kept apart here.

Columns and labels:
Format in all cases: cell-based
[1] = tested on: Methicillin Resistant Staphylococcus aureus strain USA 300, NRS384; test: Minimum inhibitory concentration, broth micro-dilution (CLSI), S. aureus; conditions: Staphylococcus aureus, MRSA / NRS 384 / USA300, 22 h
Method: (§1) In vitro antimicrobial activity of each compound was determined by measuring minimal inhibitor concentrations (MICs) using the broth micro-dilution technique as approved by the Clinical and Laboratory Standards Institute (CLSI) (Methods for Dilution Antimicrobial Susceptibility Tests for Bacteria that Grow Aerobically; Approved Standard—Eighth Edition. CLSI document M07-A8. Wayne, Pa.: Clinical and Laboratory Standards; 2009). Antibacterial activity was measure against three strains of bacteria: a Methicillin Resistant Staphylococcus aureus strain USA 300, NRS384 (S. aureus); a strain of Escherichia coli MC4100 harboring the IMP4213 (E. coli IMP), which results in increased outer-membrane permeability (B Martin and Silhavy T. Imp/OstA is required for cell envelope biogenesis in Escherichia coli. (2002) Molecular Microbiology, 45(5), 1289-1302), and Escherichia coli ATCC 25922 (E. coli), a clinically relevant Gram-negative strain. Cells were inoculated onto plates of Trypyticase Soy Agar or Luria Agar respectively and grown at 35° C. for 20 hours. Inocula suspensions were prepared by scraping cells into 1 mL of testing media (cation adjusted Mueller Hinton Broth supplemented with 0.002% v/v Tween-80) and diluting to a final OD600 nm of 0.01.
(§2) Test compounds were prepared in DMSO at a concentration of 10 mg/mL. […] In protocol 2, the compound stocks were diluted into testing media at a concentration of 4 μg/mL and serial 2-fold dilutions were made in the same media, in 96-well U bottom microtiter dishes, for a total of 10 compound concentrations. In protocol 3, compound stocks were diluted into testing media at a concentration of 0.5 μg/mL, with serial 2-fold dilutions conducted as described above. […] Inocula suspensions were added to the 2-fold serial dilutions of test compounds to a final density of OD OD600 nm of 0.0005 and incubated at 35° C. for 22 hours.

[2] = tested on: Escherichia coli MC4100 harboring the IMP4213 (E. coli IMP); test: microbe, parasite or virus in culture; conditions: Escherichia coli, 22 h
Method: as §1, §2

[3] = tested on: Escherichia coli ATCC 25922; test: Minimum inhibitory concentration, broth micro-dilution (CLSI), E. coli; conditions: Escherichia coli, ATCC25922, 22 h
Method: Cells were inoculated onto plates of Trypyticase Soy Agar or Luria Agar respectively and grown at 35° C. for 20 hours. Inocula suspensions were prepared by scraping cells into 1 mL of testing media (cation adjusted Mueller Hinton Broth supplemented with 0.002% v/v Tween-80) and diluting to a final OD600 nm of 0.01.
as §2

[4] = MRSA USA 300 NRS384, 35° C., 22 hours, read-out: MIC (μg/mL) S. aureus
[5] = read-out: MIC (μg/mL) E. coli IMP, E. coli MC4100 IMP4213, increased outer-membrane permeability, 35° C., 22 hours
[6] = E. coli ATCC 25922, 35° C., 22 hours, read-out: MIC (μg/mL) E. coli
[7] = read-out: MIC (μg/mL) S. aureus, MRSA USA 300 NRS384, 35° C., 22 hours
[8] = read-out: MIC (μg/mL) E. coli, E. coli ATCC 25922, 35° C., 22 hours

Compound `CCCCCCOc1ccc(N2CCN(c3ccc(C(=O)N[C@@H](CCN)C(=O)N(C)[C@@H]4C(=O)N[C@@H](C)C(=O)N[C@H](C(=O)NCC#N)Cc5ccc(OCCN)c(c5)-c5cc4ccc5OCCN)cc3)CC2)cc1` [Compound 527] has an MIC [1, 4] of 0.063 µg/mL (≈ 0.0629 µM), an MIC [2, 5] of 0.063 µg/mL (≈ 0.0629 µM) and an MIC [3, 6] of 4 µg/mL (≈ 3.99 µM).
Compound `CCCCCCCCc1ccc(C(=O)N[C@@H](CCN)C(=O)N(C)[C@@H]2C(=O)N[C@@H](C)C(=O)N[C@H](C(=O)NCC#N)Cc3ccc(OCCN)c(c3)-c3cc2ccc3OCCN)c(CCC#N)c1` [Compound 449] has an MIC [1, 7] of 0.094 µg/mL (≈ 0.104 µM), an MIC [2, 5] of 0.063 µg/mL (≈ 0.0694 µM) and an MIC [3, 8] of 1 µg/mL (≈ 1.1 µM).
In the case of `CCCCc1ccc(-c2ccc(C(=O)N[C@@H](CCC(=O)NCC(O)CO)C(=O)N(C)[C@@H]3C(=O)N[C@@H](C)C(=O)N[C@H](C(=O)NCC#N)Cc4ccc(OCCN)c(c4)-c4cc3ccc4OCCN)cc2)cc1` (stereo partly drawn) [Compound 517], the MIC [1, 4] is reported as 0.38 µg/mL (≈ 0.389 µM), the MIC [2, 5] is reported as 0.19 µg/mL (≈ 0.195 µM) and the MIC [3, 6] is reported as 6 µg/mL (≈ 6.15 µM).
In the case of `CCCCCCCCCCN(CCC(=O)N[C@@H](CCCCNC(=O)OC(C)(C)C)C(=O)N(C)[C@@H]1C(=O)N[C@@H](C)C(=O)N[C@H](C(=O)O)Cc2ccc(OC(=O)OC(C)(C)C)c(c2)-c2cc1ccc2OC1O[C@H](CO)[C@@H](O)[C@H](O)[C@H]1NC(=O)OC(C)(C)C)C(=O)OC(C)(C)C` (stereo partly drawn) [Compound 516], the MIC [1, 4] is reported as 2 µg/mL (≈ 1.52 µM), the MIC [2, 5] is reported as > 4 µg/mL and the MIC [3, 6] is reported as > 64 µg/mL.
`CCCCCCCCCCCCCC(=O)N[C@@H](CCN)C(=O)N(C)[C@@H]1C(=O)N[C@@H](C)C(=O)N[C@H](C(=O)NCC#N)Cc2ccc(OCC(=O)OC(C)(C)C)c(c2)-c2cc1ccc2OCCN` [Compound 328] showed an MIC [1, 4] of 1 µg/mL (≈ 1.09 µM), an MIC [2, 5] of 0.25 µg/mL (≈ 0.272 µM) and an MIC [3, 6] of 4 µg/mL (≈ 4.35 µM).
`CCCc1ccc(-c2ncc(C(=O)N[C@@H](CCN)C(=O)N(C)[C@@H]3C(=O)N[C@@H](C)C(=O)N[C@H](C(=O)NCC#N)Cc4ccc(OCCN)c(c4)-c4cc3ccc4OCCN)c(C)n2)cc1` [Compound 161] gave an MIC [1, 4] of 0.031 µg/mL (≈ 0.0354 µM), an MIC [2, 5] of 0.003 µg/mL (≈ 0.00342 µM) and an MIC [3, 6] of 0.13 µg/mL (≈ 0.148 µM).
With `CCCCCCc1ccc(C(=O)N[C@@H]2CN[C@H](C(=O)N(C)[C@@H]3C(=O)N[C@@H](C)C(=O)N[C@H](C(=O)NCC#N)Cc4ccc(OCCN)c(c4)-c4cc3ccc4OCCN)C2)c(C)c1` [Compound 498] the MIC [1, 4] was 0.5 µg/mL (≈ 0.587 µM), the MIC [2, 5] was 1 µg/mL (≈ 1.17 µM) and the MIC [3, 6] was 16 µg/mL (≈ 18.8 µM).
For `CCCCc1ccc(NC(=O)CC(CCN)C(=O)N(C)[C@@H]2C(=O)N[C@@H](C)C(=O)N[C@H](C(=O)NCC#N)Cc3ccc(OCCN)c(c3)-c3cc2ccc3OCCN)c(C)c1` (mixture of isomers) [Compound 456], the MIC [1, 4] was 0.25 µg/mL, the MIC [2, 5] was 0.5 µg/mL and the MIC [3, 6] was 64 µg/mL.
For `CCCCc1ccc(C(=O)N[C@H](CCCCN)CC(=O)N(C)[C@@H]2C(=O)N[C@@H](C)C(=O)N[C@H](C(=O)NCC#N)Cc3ccc(OCCN)c(c3)-c3cc2ccc3OCCN)c(C)c1` [Compound 510], the MIC [1, 4] was 1.5 µg/mL (≈ 1.76 µM), the MIC [2, 5] was > 4 µg/mL and the MIC [3, 6] was > 64 µg/mL.
`CCCCCCCCc1ccc(C(=O)NCC(=O)N(C)[C@@H]2C(=O)N[C@@H](C)C(=O)N[C@H](C(=O)NCC#N)Cc3ccc(OCCN)c(c3)-c3cc2ccc3OCCN)c(C)c1` [Compound 252] was tested, and the MIC [1, 4] was 0.25 µg/mL (≈ 0.303 µM), the MIC [2, 5] was 0.023 µg/mL (≈ 0.0279 µM) and the MIC [3, 6] was 2 µg/mL (≈ 2.42 µM).
`CCCCCCCCCC(=O)N[C@@H](C)C(=O)NCC(=O)N[C@@H](CCN)C(=O)N(C)[C@@H]1C(=O)N[C@@H](C)C(=O)N[C@H](C(=O)NCC#N)Cc2ccc(OCCN)c(c2)-c2cc1ccc2OCCN` [Compound 363] showed an MIC [1, 7] of 0.25 µg/mL (≈ 0.272 µM), an MIC [2, 5] of 0.5 µg/mL (≈ 0.543 µM) and an MIC [3, 8] of 64 µg/mL (≈ 69.6 µM).
Compound `CCCCCCCCCC(=O)N[C@H](C(=O)N[C@@H](CCN)C(=O)N(C)[C@@H]1C(=O)N[C@@H](C)C(=O)N[C@H](C(=O)NCC#N)Cc2ccc(OCCN)c(c2)-c2cc1ccc2OCCN)[C@@H](C)O` [Compound 356] has an MIC [1, 7] of 0.094 µg/mL (≈ 0.105 µM), an MIC [2, 5] of 0.13 µg/mL (≈ 0.146 µM) and an MIC [3, 8] of 12 µg/mL (≈ 13.4 µM).
With `CCCCCCCCc1ccc(C(=O)N[C@@H](CCN)C(=O)N(C)[C@@H]2C(=O)N[C@@H](C)C(=O)N[C@H](C(=O)NCC#N)Cc3ccc(OCCN)c(c3)-c3cc2ccc3OCCN)c(/C=C/C(=O)O)c1` [Compound 414] the MIC ([1]; read-out: MIC (μg/mL) S. aureus) was 0.5 µg/mL (≈ 0.541 µM), the MIC ([2]; read-out: MIC (μg/mL) E. coli IMP) was 0.25 µg/mL (≈ 0.271 µM) and the MIC ([3]; read-out: MIC (μg/mL) E. coli) was 64 µg/mL (≈ 69.3 µM).
